Our source for the IC50 values is patent US9988430B2, “Stable GLP-1 based GLP-1/glucagon receptor co-agonists” (Novo Nordisk A/S, priority 2014, dated 2018).

pIC50: −log10 of the molar value. *1 amine or outer side, *2 acyl side, *3 side chain or, on linkers, in order; H or OH if unused. Where a SMILES comes first, the peptide text is derived from it. Side-chain parts run from the residue outwards. [ ]: non-standard residue; d: D form. The star is where a group is joined. C18 diacid = O=C(O)CCCCCCCCCCCCCCCCC(=O)*; γGlu = O=C(O)[C@H](CCC(=O)[*:2])N[*:1]; Desaminohistidyl = O=C(CCc1c[nH]cn1)*; AEEA = NCCOCCOCC(=O)O; Aib = CC(C)(N)C(=O)O

T1 sequence (P47871 26-477): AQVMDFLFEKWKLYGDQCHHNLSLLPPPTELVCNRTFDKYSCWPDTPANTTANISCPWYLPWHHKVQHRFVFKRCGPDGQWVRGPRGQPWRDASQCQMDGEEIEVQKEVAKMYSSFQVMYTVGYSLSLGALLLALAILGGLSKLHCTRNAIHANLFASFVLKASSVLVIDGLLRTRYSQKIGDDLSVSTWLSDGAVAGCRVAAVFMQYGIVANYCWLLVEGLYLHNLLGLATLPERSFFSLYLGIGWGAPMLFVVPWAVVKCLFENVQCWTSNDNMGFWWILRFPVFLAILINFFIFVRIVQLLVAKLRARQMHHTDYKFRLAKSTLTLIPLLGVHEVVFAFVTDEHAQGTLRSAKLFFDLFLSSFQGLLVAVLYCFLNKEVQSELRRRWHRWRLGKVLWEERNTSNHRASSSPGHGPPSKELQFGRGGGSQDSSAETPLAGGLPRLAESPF

This test concerns the target T1, human glucagon receptor (Homo sapiens, UniProt P47871).
T1 construct: expressed in transfected cells; host or cells: membranes of BHK cells, clone BHK hGCGR A3*25
The experiment in a line: Assay (II)(b): glucagon receptor binding, [125I]-glucagon displacement, SPA on BHK membranes. Particulars: displacement of [125I]-glucagon, membranes with human glucagon receptor; read-out: IC50 GlucagonR. As to the method: Assay (II): GLP-1 and Glucagon Receptor Binding The purpose of this assay is to test the in vitro receptor binding activity of the GLP-1 derivatives of the invention. (b) Glucagon Receptor Binding The glucagon receptor (glucagonR) binding activity is a measure of affinity of a derivative for the human glucagon receptor. The glucagon receptor binding of each derivative were determined with competitive binding, displacing [^125I]-glucagon bound to glucagon receptors expressed in cell membranes associated with wheat germ agglutinin (WGA) scintillation proximity assay (SPA) beads. Each derivative was added in a series of concentrations to isolated membranes comprising the human glucagon receptor and displacement of the labelled ligand was monitored. The receptor binding was reported as the concentration at which half of the labelled ligand is displaced from the receptor, the IC^50 value. The following chemicals were used in the assay: DMEM w Glutamax (Gibco 61965-026), Pen/strep (Invitrogen 15140-122), G418 (Invitrogen 10131-027), Versene (Gibco 15040), 1 M Hepes (Gibco 15630), PBS (Invitrogen 14190-094), fetal calf serum (Invitrogen 16140-071), MgCl2 (Merck 1.05832.1000), EDTA (Invitrogen 15575-038), CaCl2 (Sigma, C5080), Tween 20 (Amresco 0850C335), ovalbumin (Sigma A5503), SPA particles (wheat germ agglutinin (WGA) SPA beads, Perkin Elmer RPNQ0001), [125I]-glucagon (produced in-house), OptiPlate™-96 (Packard 6005290). HME buffer consisted of 25 mM HEPES, 2 mM MgCl2 and 1 mM EDTA, and pH was adjusted to 7.4. Assay buffer consisted of 50 mM HEPES supplemented with 5 mM MgCl2, 1 mM CaCl2, 0.02% Tween 20 and 0.1% Ovalbumin, and pH was adjusted to 7.4. The cells used in this assay (clone BHK hGCGR A3*25) were BHK cells stable transfected with an expression plasmid comprising the cDNA encoding the human glucagon receptor. The cells were grown at 5% CO2 in DMEM, 10% fetal calf serum, 1% Pen/Strep (Penicillin/Streptomycin) and 1.0 mg/ml of the selection marker G418. To make a membrane preparation the cells were grown to approximately 80% confluence. The cells were washed twice in phosphate-buffered saline and harvested. The cells were pelleted using a brief centrifugation and the cell pellet was kept on ice. Lyse the cells by adding approx. 5 ml HME buffer, mix by pipetting and snap freeze in liquid nitrogen. Thaw quickly and add HME buffer to 10 ml. The cell pellet was homogenised with an ULTRA-THURRAX dispersing instrument for 20-30 seconds. The homogenate was centrifuged at 20.000×G, 4° C. for 10 minutes. The pellet was resuspended (homogenised) in 1-2 ml HME buffer. The protein concentration was determined. The membranes were aliquoted and snapfrozen in liquid nitrogen and stored at minus 80° C. • 1. For the receptor binding assay 50 μl of the assay buffer was added to each well of an assay plate. • 2. Test compounds were serially diluted to give the following concentrations: 8×10EE-7 M, 8×10EE-8 M, 8×10EE-9 M, 8×10EE-10 M, 8×10EE-11 M, 8×10EE-12 M and 8×10EE-13 M. Twenty-five μl were added to appropriate wells in the assay plate. • 3. Cell membrane aliquots were thawed and diluted to their working concentration. Fifty μl were added to each well in the assay plate. • 4. WGA SPA beads were suspended in assay buffer at 20 mg/ml. The suspension was diluted to 10 mg/ml in assay buffer just prior to addition to the assay plate. Fifty μl were added to each well in the assay plate. • 5. The incubation was started by adding 25 μl of 480 pM solution of [125I]-glucagon to each well of the assay plate. A 25 μl aliquot was reserved for measuring total counts/well. • 6. The assay plate was incubated for 2 h at 25° C. • 7. The assay plate was centrifuged for 10 min at 1500 rpm. • 8. The assay plate was read in a Perkin Elmer TopCount NXT instrument. Calculations The data from the TopCount instrument were transferred to GraphPad Prism software. The software averaged the values for the replicates and performed a non-linear regression. […]
In general terms: Displacement assays read how much labelled ligand stays bound in the presence of the test substance.
Usually pIC50 stands for −log10 of the IC50, conventionally taken in molar units. Turning to `CC[C@H](C)[C@H](NC(=O)[C@H](Cc1ccccc1)NC(=O)[C@H](CCC(=O)O)NC(=O)[C@H](CCCNC(=N)N)NC(=O)[C@H](C)NC(=O)[C@H](C)NC(=O)[C@H](CCC(N)=O)NC(=O)[C@H](CCC(=O)O)NC(=O)[C@H](CCC(=O)O)NC(=O)[C@H](CC(C)C)NC(=O)[C@H](Cc1ccc(O)cc1)NC(=O)[C@H](CCCCN)NC(=O)[C@H](CO)NC(=O)[C@@H](NC(=O)[C@H](CC(=O)O)NC(=O)[C@H](CO)NC(=O)[C@@H](NC(=O)[C@H](Cc1ccccc1)NC(=O)[C@@H](NC(=O)CNC(=O)[C@H](Cc1c[nH]cn1)NC(=O)C(C)(C)NC(=O)CCc1c[nH]cn1)[C@@H](C)O)[C@@H](C)O)C(C)C)C(=O)N[C@@H](C)C(=O)N[C@@H](Cc1c[nH]c2ccccc12)C(=O)N[C@@H](CC(C)C)C(=O)N[C@@H](CC(C)C)C(=O)N[C@@H](CCCCNC(=O)COCCOCCNC(=O)COCCOCCNC(=O)CC[C@H](NC(=O)CC[C@H](NC(=O)CCCCCCCCCCCCCCCCC(=O)O)C(=O)O)C(=O)O)C(=O)N[C@H](C(N)=O)[C@@H](C)O` [Example 5, N^ε34-[2-[2-[2-[[2-[2-[2-[[(4S)-4-carboxy-4-[[(4S)-4-carboxy-4-(17-carboxyheptadecanoylamino)butanoyl]amino]butanoyl]amino]ethoxy]ethoxy]acetyl]amino]ethoxy]ethoxy]acetyl]-[Imp7,Aib8,His9,Lys18,Glu22,Arg26,Leu33,Thr35]-GLP-1-(7-35)-peptide amide] (Desaminohistidyl-[Aib]HGTFTSDVSKYLEEQAAREFIAWLLK([AEEA-AEEA-γGlu-γGlu-C18 diacid])T-NH2), the pIC50 is 8.37.
The result for `CC[C@H](C)[C@H](NC(=O)[C@H](Cc1ccccc1)NC(=O)[C@H](CCC(=O)O)NC(=O)[C@H](CCCNC(=N)N)NC(=O)[C@H](C)NC(=O)[C@H](C)NC(=O)[C@H](CCCNC(=N)N)NC(=O)[C@H](C)NC(=O)[C@H](CCC(=O)O)NC(=O)[C@H](CC(C)C)NC(=O)[C@H](Cc1ccc(O)cc1)NC(=O)[C@H](CCCCN)NC(=O)[C@H](CO)NC(=O)[C@@H](NC(=O)[C@H](CC(=O)O)NC(=O)[C@H](CO)NC(=O)[C@@H](NC(=O)[C@H](Cc1ccccc1)NC(=O)[C@@H](NC(=O)CNC(=O)[C@H](Cc1c[nH]cn1)NC(=O)C(C)(C)NC(=O)CCc1c[nH]cn1)[C@@H](C)O)[C@@H](C)O)C(C)C)C(=O)N[C@@H](C)C(=O)N[C@@H](Cc1c[nH]c2ccccc12)C(=O)N[C@@H](CC(C)C)C(=O)N[C@@H](CC(C)C)C(=O)N[C@@H](CCCCNC(=O)CC[C@H](NC(=O)COCCOCCNC(=O)COCCOCCNC(=O)CC[C@H](NC(=O)CC[C@H](NC(=O)CCCCCCCCCCCCCCCCC(=O)O)C(=O)O)C(=O)O)C(=O)O)C(=O)NCC(=O)NCC(=O)NCC(=O)O` [Example 31, N^ε34-[(4S)-4-carboxy-4-[[2-[2-[2-[[2-[2-[2-[[(4S)-4-carboxy-4-[[(4S)-4-carboxy-4-(17-carboxyheptadecanoylamino)butanoyl]amino]butanoyl]amino]ethoxy]ethoxy]acetyl]amino]ethoxy]ethoxy]acetyl]amino]butanoyl]-[Imp7,Aib8,His9,Lys18,Ala22,Arg23,Arg26,Leu33,Gly36]-GLP-1-(7-37)-peptide] (Desaminohistidyl-[Aib]HGTFTSDVSKYLEARAAREFIAWLLK([γGlu-AEEA-AEEA-γGlu-γGlu-C18 diacid])GGG-OH) reads 8.43.
Consider `CC[C@H](C)[C@H](NC(=O)[C@H](Cc1ccccc1)NC(=O)[C@H](CCC(=O)O)NC(=O)[C@H](CCCNC(=N)N)NC(=O)[C@H](C)NC(=O)[C@H](C)NC(=O)[C@H](CCCNC(=N)N)NC(=O)CNC(=O)[C@H](CCC(=O)O)NC(=O)[C@H](CC(C)C)NC(=O)[C@H](Cc1ccc(O)cc1)NC(=O)[C@H](CCCNC(=N)N)NC(=O)[C@H](CO)NC(=O)[C@@H](NC(=O)[C@H](CC(=O)O)NC(=O)[C@H](CO)NC(=O)[C@@H](NC(=O)[C@H](Cc1ccccc1)NC(=O)[C@@H](NC(=O)CNC(=O)[C@H](Cc1c[nH]cn1)NC(=O)C(C)(C)NC(=O)CCc1c[nH]cn1)[C@@H](C)O)[C@@H](C)O)C(C)C)C(=O)N[C@@H](C)C(=O)N[C@@H](Cc1c[nH]c2ccccc12)C(=O)N[C@@H](CC(C)C)C(=O)N[C@@H](CC(C)C)C(=O)N[C@@H](CCCCNC(=O)CC[C@H](NC(=O)CC[C@H](NC(=O)COCCOCCNC(=O)CC[C@H](NC(=O)CC[C@H](NC(=O)CCCCCCCCCCCCCCCCC(=O)O)C(=O)O)C(=O)O)C(=O)O)C(=O)O)C(=O)NCC(=O)N[C@@H](C)C(=O)NCC(=O)O` [Example 35, N^ε34-[(4S)-4-carboxy-4-[[(4S)-4-carboxy-4-[[2-[2-[2-[[(4S)-4-carboxy-4-[[(4S)-4-carboxy-4-(17-carboxyheptadecanoylamino)butanoyl]amino]butanoyl]amino]ethoxy]ethoxy]acetyl]amino]butanoyl]amino]butanoyl]-[Imp7,Aib8,His9,Arg18,Arg23,Arg26,Leu33,Ala36]-GLP-1-(7-37)-peptide] (Desaminohistidyl-[Aib]HGTFTSDVSRYLEGRAAREFIAWLLK([γGlu-γGlu-AEEA-γGlu-γGlu-C18 diacid])GAG-OH), for which the pIC50 is 7.73.
The result for `CC[C@H](C)[C@H](NC(=O)[C@H](Cc1ccccc1)NC(=O)[C@H](CCC(=O)O)NC(=O)[C@H](CCCNC(=N)N)NC(=O)[C@H](C)NC(=O)[C@H](C)NC(=O)[C@H](CCC(N)=O)NC(=O)[C@H](CCC(=O)O)NC(=O)[C@H](CCC(=O)O)NC(=O)[C@H](CC(C)C)NC(=O)[C@H](Cc1ccc(O)cc1)NC(=O)[C@H](CCCCN)NC(=O)[C@H](CO)NC(=O)[C@@H](NC(=O)[C@H](CC(=O)O)NC(=O)[C@H](CO)NC(=O)[C@@H](NC(=O)[C@H](Cc1ccccc1)NC(=O)[C@@H](NC(=O)CNC(=O)[C@H](Cc1c[nH]cn1)NC(=O)C(C)(C)NC(=O)CCc1c[nH]cn1)[C@@H](C)O)[C@@H](C)O)C(C)C)C(=O)N[C@@H](C)C(=O)N[C@@H](Cc1c[nH]c2ccccc12)C(=O)N[C@@H](CC(C)C)C(=O)N[C@@H](CC(C)C)C(=O)N[C@@H](CCCCNC(=O)CNC(=O)[C@H](CO)NC(=O)CC[C@H](NC(=O)CC[C@H](NC(=O)CCCCCCCCCCCCCCCCC(=O)O)C(=O)O)C(=O)O)C(=O)N[C@H](C(N)=O)[C@@H](C)O` [Example 4, N^ε34-[2-[[(2S)-2-[[(4S)-4-carboxy-4-[[(4S)-4-carboxy-4-(17-carboxyheptadecanoylamino)butanoyl]amino]butanoyl]amino]-3-hydroxypropanoyl]amino]acetyl]-[Imp7,Aib8,His9,Lys18,Glu22,Arg26,Leu33,Thr35]-GLP-1-(7-35)-peptide amide] (Desaminohistidyl-[Aib]HGTFTSDVSKYLEEQAAREFIAWLLK([Gly-Ser-γGlu-γGlu-C18 diacid])T-NH2) reads 8.37.
